# Reference: publication PMC6030199, “The mitochondrial citrate carrier, SLC25A1, drives stemness and therapy resistance in non-small cell lung cancer” (Cell Death and Differentiation, 2018)
# Target: T1, SLC25A1 (mitochondrial citrate carrier) (Homo sapiens, UniProt P53007)
# T1 construct: Histidine-tagged recombinant purified SLC25A1
# Experiment: SPR (Biacore […], NTA chip, […] steady-state fit)
# Assay type: binding
# T1 sequence (P53007 14-311): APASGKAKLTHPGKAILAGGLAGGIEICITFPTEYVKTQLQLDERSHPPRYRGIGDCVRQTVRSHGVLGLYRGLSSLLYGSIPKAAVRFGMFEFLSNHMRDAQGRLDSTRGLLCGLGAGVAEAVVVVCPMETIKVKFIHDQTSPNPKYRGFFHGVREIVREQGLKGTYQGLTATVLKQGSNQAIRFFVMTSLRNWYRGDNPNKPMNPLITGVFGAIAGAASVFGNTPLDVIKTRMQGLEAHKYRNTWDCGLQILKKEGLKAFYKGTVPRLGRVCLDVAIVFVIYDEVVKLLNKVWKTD
row,Kd [µM],Structure (SMILES)
1,63.6,O=C(O)c1ccc(Cl)c(S(=O)(=O)Nc2cccc([N+](=O)[O-])c2)c1 [CTPI-1]
2,3.5,O=C(O)c1ccccc1NS(=O)(=O)c1ccc(Cl)c([N+](=O)[O-])c1 [CTPI-2]
